Experimental data as given in publication PMC10879502, “Linking ATP and allosteric sites to achieve superadditive binding with bivalent EGFR kinase inhibitors” (Communications Chemistry, 2024).

Columns and labels:
Assay in all cases: KINOMEscan
Assay type in all cases: binding
Settings in all cases: 1 μM
EGFR(E746-A750del) = EGFR(E746-A750del) (Homo sapiens, UniProt P00533, DEL746-750)
MARK2 = target: T1, MARK2 (Homo sapiens, UniProt Q7KZI7)
T1 construct: purchased Eurofins DiscoverX Corporation

STK36 = STK36 (Homo sapiens, UniProt Q9NRP7)
Chain of STK36 (Q9NRP7 whole entry): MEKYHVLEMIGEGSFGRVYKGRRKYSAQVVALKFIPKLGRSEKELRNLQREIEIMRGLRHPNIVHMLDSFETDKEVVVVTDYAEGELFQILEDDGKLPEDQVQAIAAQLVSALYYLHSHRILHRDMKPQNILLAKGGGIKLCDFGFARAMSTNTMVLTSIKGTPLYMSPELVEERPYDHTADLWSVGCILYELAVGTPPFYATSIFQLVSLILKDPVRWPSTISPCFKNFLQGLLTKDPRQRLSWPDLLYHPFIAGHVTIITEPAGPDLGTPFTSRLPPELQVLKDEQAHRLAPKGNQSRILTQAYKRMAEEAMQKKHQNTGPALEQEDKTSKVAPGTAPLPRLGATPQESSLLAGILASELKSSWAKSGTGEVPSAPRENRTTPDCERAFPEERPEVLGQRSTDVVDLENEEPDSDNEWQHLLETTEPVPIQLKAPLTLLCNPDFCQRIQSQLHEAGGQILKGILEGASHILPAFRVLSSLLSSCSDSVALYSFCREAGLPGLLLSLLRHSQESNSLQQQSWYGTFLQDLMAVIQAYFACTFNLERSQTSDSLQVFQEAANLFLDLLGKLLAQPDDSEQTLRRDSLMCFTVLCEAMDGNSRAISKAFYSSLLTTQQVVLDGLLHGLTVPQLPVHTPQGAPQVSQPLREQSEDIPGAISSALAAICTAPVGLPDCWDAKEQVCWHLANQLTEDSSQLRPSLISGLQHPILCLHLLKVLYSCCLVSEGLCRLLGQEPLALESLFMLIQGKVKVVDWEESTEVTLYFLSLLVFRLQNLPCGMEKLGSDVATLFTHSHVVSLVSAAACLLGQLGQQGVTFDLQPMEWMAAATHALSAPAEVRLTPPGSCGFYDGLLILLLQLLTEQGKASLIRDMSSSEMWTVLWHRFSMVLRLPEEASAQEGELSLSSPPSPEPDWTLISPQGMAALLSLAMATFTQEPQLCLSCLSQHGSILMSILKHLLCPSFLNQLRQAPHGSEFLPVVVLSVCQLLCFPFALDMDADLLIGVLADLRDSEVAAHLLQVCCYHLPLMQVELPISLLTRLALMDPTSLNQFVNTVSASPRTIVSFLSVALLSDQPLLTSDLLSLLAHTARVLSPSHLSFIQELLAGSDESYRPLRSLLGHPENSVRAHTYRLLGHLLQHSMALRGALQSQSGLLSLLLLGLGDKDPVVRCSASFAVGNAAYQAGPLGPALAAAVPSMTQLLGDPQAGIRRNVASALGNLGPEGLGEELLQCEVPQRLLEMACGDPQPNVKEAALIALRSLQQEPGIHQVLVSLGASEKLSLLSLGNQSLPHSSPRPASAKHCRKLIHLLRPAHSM

[1] = target: T2, ABL1(F317I)-nonphosphorylated (Homo sapiens, UniProt P00519, F317I)
T2 construct: purchased Eurofins DiscoverX Corporation

ABL2 = target: T3, ABL2 (Homo sapiens, UniProt P42684)
T3 construct: purchased Eurofins DiscoverX Corporation
T3 sequence (P42684 whole entry): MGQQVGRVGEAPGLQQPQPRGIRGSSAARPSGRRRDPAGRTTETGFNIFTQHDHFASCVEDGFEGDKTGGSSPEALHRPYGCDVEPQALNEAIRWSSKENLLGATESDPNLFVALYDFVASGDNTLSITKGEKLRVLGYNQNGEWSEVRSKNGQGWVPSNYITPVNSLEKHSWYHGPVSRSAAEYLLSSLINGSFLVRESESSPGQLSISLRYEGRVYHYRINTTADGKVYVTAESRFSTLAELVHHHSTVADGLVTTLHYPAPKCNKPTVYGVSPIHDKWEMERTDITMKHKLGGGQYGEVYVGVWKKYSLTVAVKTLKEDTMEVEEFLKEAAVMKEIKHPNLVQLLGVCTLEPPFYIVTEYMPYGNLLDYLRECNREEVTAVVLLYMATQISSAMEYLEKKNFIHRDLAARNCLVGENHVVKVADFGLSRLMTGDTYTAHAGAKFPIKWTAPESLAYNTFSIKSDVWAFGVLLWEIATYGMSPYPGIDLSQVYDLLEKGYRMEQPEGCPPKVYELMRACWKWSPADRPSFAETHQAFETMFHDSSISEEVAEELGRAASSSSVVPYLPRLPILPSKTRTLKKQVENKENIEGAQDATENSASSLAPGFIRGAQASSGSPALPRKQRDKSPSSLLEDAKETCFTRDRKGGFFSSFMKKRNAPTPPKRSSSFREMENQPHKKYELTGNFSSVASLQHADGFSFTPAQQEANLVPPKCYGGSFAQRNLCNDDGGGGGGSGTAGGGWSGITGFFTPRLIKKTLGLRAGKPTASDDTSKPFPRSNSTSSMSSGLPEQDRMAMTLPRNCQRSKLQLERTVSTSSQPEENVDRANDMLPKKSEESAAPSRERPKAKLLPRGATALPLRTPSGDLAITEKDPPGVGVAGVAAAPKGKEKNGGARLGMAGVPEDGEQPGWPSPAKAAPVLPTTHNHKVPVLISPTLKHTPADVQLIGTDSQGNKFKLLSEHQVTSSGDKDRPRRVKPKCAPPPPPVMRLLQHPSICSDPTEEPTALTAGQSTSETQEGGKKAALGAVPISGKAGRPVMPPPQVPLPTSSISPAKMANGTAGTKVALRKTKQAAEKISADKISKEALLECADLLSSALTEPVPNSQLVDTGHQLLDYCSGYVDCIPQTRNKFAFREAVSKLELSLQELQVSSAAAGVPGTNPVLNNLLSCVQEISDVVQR

LATS1 = target: T4, LATS1 (Homo sapiens, UniProt O95835)
T4 construct: purchased Eurofins DiscoverX Corporation
T4 sequence (O95835 whole entry): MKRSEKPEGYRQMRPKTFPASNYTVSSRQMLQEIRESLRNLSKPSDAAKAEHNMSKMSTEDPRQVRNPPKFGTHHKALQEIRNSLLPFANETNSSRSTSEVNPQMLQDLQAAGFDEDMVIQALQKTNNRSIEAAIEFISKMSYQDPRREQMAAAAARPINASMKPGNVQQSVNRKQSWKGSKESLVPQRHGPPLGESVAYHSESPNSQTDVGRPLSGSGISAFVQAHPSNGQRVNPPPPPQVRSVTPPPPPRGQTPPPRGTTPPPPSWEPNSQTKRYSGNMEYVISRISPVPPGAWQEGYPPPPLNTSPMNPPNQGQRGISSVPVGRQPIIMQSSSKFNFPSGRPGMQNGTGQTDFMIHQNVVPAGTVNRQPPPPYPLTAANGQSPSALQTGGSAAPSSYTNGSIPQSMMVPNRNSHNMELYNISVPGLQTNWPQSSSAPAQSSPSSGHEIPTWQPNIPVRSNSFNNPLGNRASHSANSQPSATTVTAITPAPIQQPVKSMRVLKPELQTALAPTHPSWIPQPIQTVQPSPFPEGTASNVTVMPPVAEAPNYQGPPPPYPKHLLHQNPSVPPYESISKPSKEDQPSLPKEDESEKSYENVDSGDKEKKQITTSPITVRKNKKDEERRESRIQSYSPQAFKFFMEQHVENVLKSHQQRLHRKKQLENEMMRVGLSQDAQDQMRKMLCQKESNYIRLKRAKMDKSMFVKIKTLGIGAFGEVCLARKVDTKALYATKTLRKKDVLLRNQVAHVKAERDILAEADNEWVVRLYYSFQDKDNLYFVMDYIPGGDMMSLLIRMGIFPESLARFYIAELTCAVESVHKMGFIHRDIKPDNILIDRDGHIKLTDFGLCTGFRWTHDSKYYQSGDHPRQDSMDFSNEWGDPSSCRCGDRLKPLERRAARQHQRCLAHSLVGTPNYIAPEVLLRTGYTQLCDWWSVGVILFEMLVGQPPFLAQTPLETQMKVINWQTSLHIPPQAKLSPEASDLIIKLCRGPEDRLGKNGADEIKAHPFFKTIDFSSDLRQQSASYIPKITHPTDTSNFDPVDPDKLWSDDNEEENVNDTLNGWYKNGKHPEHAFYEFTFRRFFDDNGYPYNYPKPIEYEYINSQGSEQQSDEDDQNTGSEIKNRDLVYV

TRKA = target: T5, TRKA (Homo sapiens, UniProt P04629)
T5 construct: purchased Eurofins DiscoverX Corporation

PHKG1 = PHKG1 (Homo sapiens, UniProt Q16816)
Chain of PHKG1 (Q16816 whole entry): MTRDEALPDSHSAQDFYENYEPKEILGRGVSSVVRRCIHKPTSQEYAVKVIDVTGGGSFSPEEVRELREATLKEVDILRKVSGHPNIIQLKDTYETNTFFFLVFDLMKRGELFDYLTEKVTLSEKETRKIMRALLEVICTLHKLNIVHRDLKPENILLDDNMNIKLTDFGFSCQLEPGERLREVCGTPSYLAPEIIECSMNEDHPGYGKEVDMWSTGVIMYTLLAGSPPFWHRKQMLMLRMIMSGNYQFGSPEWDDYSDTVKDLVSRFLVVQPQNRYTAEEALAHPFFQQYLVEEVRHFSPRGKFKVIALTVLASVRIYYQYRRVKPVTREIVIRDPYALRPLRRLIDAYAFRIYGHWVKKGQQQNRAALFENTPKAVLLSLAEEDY

CLK1 = CLK1 (Homo sapiens, UniProt P49759)
LIMK2 = target: T6, LIMK2 (Homo sapiens, UniProt P53671)
T6 construct: purchased Eurofins DiscoverX Corporation

CAMKK1 = target: T7, CAMKK1 (Homo sapiens, UniProt Q8N5S9)
T7 construct: purchased Eurofins DiscoverX Corporation (KINOMEscan)

AMPK-alpha2 = AMPK-alpha2 (Homo sapiens, UniProt P54646)
[2] = target: RSK2(Kin.Dom.1-N-terminal) (Homo sapiens, UniProt P51812)
Chain of RSK2(Kin.Dom.1-N-terminal) (P51812 68-327 limits assumed): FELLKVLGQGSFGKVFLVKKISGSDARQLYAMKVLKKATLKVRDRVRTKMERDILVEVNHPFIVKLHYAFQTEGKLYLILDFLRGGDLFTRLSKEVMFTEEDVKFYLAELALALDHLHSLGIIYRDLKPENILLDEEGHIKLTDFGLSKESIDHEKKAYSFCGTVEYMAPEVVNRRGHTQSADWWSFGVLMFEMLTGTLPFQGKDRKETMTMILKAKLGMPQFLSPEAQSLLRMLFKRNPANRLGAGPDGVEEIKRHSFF

CAMK1 = target: T8, CAMK1 (Homo sapiens, UniProt Q14012)
T8 construct: purchased Eurofins DiscoverX Corporation (KINOMEscan)
T8 sequence (Q14012 whole entry): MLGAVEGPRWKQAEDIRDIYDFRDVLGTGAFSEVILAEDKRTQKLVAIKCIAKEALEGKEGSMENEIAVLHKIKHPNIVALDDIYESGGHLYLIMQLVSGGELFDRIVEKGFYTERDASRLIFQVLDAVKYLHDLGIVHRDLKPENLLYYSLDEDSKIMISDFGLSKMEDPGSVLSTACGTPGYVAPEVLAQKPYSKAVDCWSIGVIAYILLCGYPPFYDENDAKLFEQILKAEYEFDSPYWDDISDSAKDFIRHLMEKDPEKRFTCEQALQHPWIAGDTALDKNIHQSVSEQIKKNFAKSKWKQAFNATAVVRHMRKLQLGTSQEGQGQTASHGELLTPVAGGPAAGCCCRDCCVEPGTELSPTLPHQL

LOK = target: T9, LOK (Homo sapiens, UniProt O94804)
T9 construct: purchased Eurofins DiscoverX Corporation

KIT(A829P) = target: T10, KIT(A829P) (Homo sapiens, UniProt P10721, A829P)
T10 construct: purchased Eurofins DiscoverX (KINOMEscan)

BTK = target: T11, BTK (Homo sapiens, UniProt Q06187)
T11 construct: purchased Eurofins DiscoverX Corporation (KINOMEscan)

PIK3CA = PIK3CA (Homo sapiens, UniProt P42336)
MEK2 = target: T12, MEK2 (Homo sapiens, UniProt P36507)
T12 construct: purchased Eurofins DiscoverX Corporation

[3] = target: RSK1(Kin.Dom.2-C-terminal) (Homo sapiens, UniProt Q15418)
Chain of RSK1(Kin.Dom.2-C-terminal) (Q15418 418-675 limits assumed): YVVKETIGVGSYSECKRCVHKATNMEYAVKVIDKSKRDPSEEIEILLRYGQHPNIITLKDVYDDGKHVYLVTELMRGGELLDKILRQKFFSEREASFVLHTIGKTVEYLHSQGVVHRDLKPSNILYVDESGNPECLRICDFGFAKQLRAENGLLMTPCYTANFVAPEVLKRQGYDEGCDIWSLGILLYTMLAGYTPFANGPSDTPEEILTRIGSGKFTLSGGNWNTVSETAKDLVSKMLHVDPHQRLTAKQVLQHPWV

Q: What does the source list for C=CC(=O)Nc1ccc(OC)c(Nc2cc(-c3[nH]c(CC)nc3-c3cccc(NC(=O)c4cccc5c4NC(=O)c4ccccc4N5)c3)ccn2)c1 [Compound 4]?
A: POC (EGFR(E746-A750del)): 13% of control; POC (MARK2): 85% of control; POC (STK36): 30% of control; POC [1]: 40% of control; POC (ABL2): 92% of control; POC (LATS1): 100% of control; POC (TRKA): 77% of control; POC (PHKG1): 96% of control; POC (CLK1): 100% of control; POC (LIMK2): 93% of control; POC (CAMKK1): 85% of control; POC (AMPK-alpha2): 56% of control; POC [2]: 100% of control; POC (CAMK1): 81% of control; POC (LOK): 49% of control; POC (KIT(A829P)): 56% of control; POC (BTK): 54% of control; POC (PIK3CA): 70% of control; POC (MEK2): 100% of control; POC [3]: 75% of control
